The subject of test [1] is B. subtilis. Kind of test: Antibiotic activity of electropherogram spot. The test is classed as cell-based.
Test [2] has as its system Pseudomonas aeruginosa. In words: Antibiotic activity of electropherogram spot. The test is classed as cell-based.
In test [3] the test system is Escherichia coli. Kind of test: Antibiotic activity of electropherogram spot. The test is classed as cell-based.
The nature of test [4]: Antibiotic activity of electropherogram spot (germ not stated). Type of test: cell-based.
In test [5] the test system is Shigella sp. In words: In vitro turbidity test (Muller-Hinton broth). The test is classed as cell-based. Particulars: 100 μg/ml, 24 hours incubation.
For test [6], the system named is Bordetella bronchiseptica. Kind of test: In vitro turbidity test (Muller-Hinton broth). Type of test: cell-based. Particulars: 100 μg/ml, 24 hours incubation.
The subject of test [7] is Providencia. In words: In vitro turbidity test (Muller-Hinton broth). The test is classed as cell-based. Particulars: 100 μg/ml, 24 hours incubation.
For test [8], the system named is Klebsiella pneumoniae. In words: In vitro turbidity test (Muller-Hinton broth). Type of test: cell-based. Particulars: 100 μg/ml, 24 hours incubation.
The subject of test [9] is Corynebacterium pyogenes M. In words: In vitro turbidity test (Muller-Hinton broth). Type of test: cell-based. The following applies: 100 μg/ml, 24 hours incubation.
Test [10] relates to Corynebacterium diphteriae gravis. Kind of test: In vitro turbidity test (Muller-Hinton broth). Type of test: cell-based. The following applies: 100 μg/ml, 24 hours incubation.
For test [11], the system named is Staphylococcus aureus 133. Kind of test: In vitro turbidity test (Muller-Hinton broth). Type of test: cell-based. The following applies: 100 μg/ml, 24 hours incubation.
Test [12] deals with Streptococcus pyogenes W. Kind of test: In vitro turbidity test (Muller-Hinton broth). The test is classed as cell-based. The following applies: 100 μg/ml, 24 hours incubation.
For test [13], the system named is Pasteurella pseudotuberculosis. Type of test: cell-based. Particulars: 100 μg/ml, 24 hours incubation.
Test [14] concerns Haemophilis influenzae. In words: In vitro turbidity test (Muller-Hinton broth). The following applies: 100 μg/ml, 24 hours incubation. Type of test: cell-based.
In test [15] the test system is Serratia marcescens. Kind of test: In vitro turbidity test (Muller-Hinton broth). The test is classed as cell-based. The following applies: 100 μg/ml, 24 hours incubation.
Test [16] has as its system Diplococcus pneumoniae sp. Kind of test: In vitro turbidity test (Muller-Hinton broth). Type of test: cell-based. The following applies: 100 μg/ml, 24 hours incubation.
The subject of test [17] is Enterococcus sp. In words: In vitro turbidity test (Muller-Hinton broth). Type of test: cell-based. Particulars: 100 μg/ml, 24 hours incubation.
The subject of test [18] is Escherichia coli BE. Kind of test: In vitro turbidity test (Muller-Hinton broth). Type of test: cell-based. The following applies: 100 μg/ml, 24 hours incubation.
The test system of test [19] is Brucella sp. Type of test: cell-based. Particulars: 100 μg/ml, 24 hours incubation.
The subject of test [20] is Lactobacillus sp. Kind of test: In vitro turbidity test (Muller-Hinton broth). Type of test: cell-based. Particulars: 100 μg/ml, 24 hours incubation.
The test system of test [21] is Neisseria catarrhalis sp. Kind of test: In vitro turbidity test (Muller-Hinton broth). The following applies: 100 μg/ml, 24 hours incubation. The test is classed as cell-based.
In test [22] the test system is Enterobacter aerogenes sp. In words: In vitro turbidity test (Muller-Hinton broth). Type of test: cell-based. The following applies: 100 μg/ml, 24 hours incubation.
Test [23] deals with Salmonella sp. Kind of test: In vitro turbidity test (Muller-Hinton broth). Type of test: cell-based. The following applies: 100 μg/ml, 24 hours incubation.
Test [24] deals with Proteus, indole negative and indole positive sp. In words: In vitro turbidity test (Muller-Hinton broth). The test is classed as cell-based. Particulars: 100 μg/ml, 24 hours incubation.
In test [25] the test system is Staphylococcus aureus 133. Kind of test: Animal experiments with white mice (intraperitoneal infection). The test is classed as in vivo, white mice of strain CF1 infected with Staphylococcus aureus. The following applies: Staphylococcus aureus, 133, sc; white mice CF1, subcutaneous, 1 administration 30 minutes after infection (1 × dose); 50% survive after 24 hours. On the procedure: (§1) The white mice of strain CF1 were infected intraperitoneally with the species of bacteria indicated.
(§2) Determination of the ED50 after 24 hours
(§3) Therapy: 1 administration 30 minutes after infection.
(§4) The ED50 is the dose at which 50% of the infected animals still survive after 24 hours.

The subject of test [26] is Klebsiella. Described as above. Particulars: sc, white mice CF1, subcutaneous, 1 administration 30 minutes after infection (1 × dose), 50% survive after 24 hours. Type of test: in vivo, white mice of strain CF1 infected with Klebsiella. As to the method: as §1, §2, §3, §4
For test [27], the system named is Escherichia coli C 165. The test is described as above. The test is classed as in vivo, white mice of strain CF1 infected with Escherichia coli. Particulars: C165, sc, white mice CF1, subcutaneous, 1 administration 30 minutes after infection (1 × dose), 50% survive after 24 hours. As to the method: as §1, §2, §3, §4
Test [28] deals with bacteria from the genus Pseudomonades. The following applies: known art; cited from earlier work.

As for `CC(=O)OCC1=C(C(=O)[O-])N2C(=O)C(NC(=O)[C@H](NC(=O)N3CCNC3=O)c3ccccc3)[C@H]2SC1.[Na+]` (stereo partly drawn) [Example 1, sodium 7-{D-α-[(2-oxo-imidazolidin-1-yl)-carbonylamino]-phenylacetamido}-3-acetoxymethyl-ceph-3-em-4-carboxylate], the “antibiotic activity of the electropherogram spot” value (from here on “antibiotic activity”) in test [1], in test [2] and in [3] was “only one spot with antibiotic activity” in each case.
For `CC1=C(C(=O)O)N2C(=O)C(NC(=O)[C@H](NC(=O)N3CCNC3=O)c3ccccc3)[C@H]2SC1` (stereo partly drawn) [Example 2, 7-{D-α-[(2-Oxo-imidazolidin-1-yl)-carbonylamino]-phenylacetamido}-3-methyl-ceph-3-em-4-carboxylic acid], the “antibiotic activity” value in test [4] was “only one spot with antibiotic activity”.
Take `CC(=O)OCC1=C(C(=O)[O-])N2C(=O)C(NC(=O)[C@H](NC(=O)N3CCN(C)C3=O)c3ccccc3)[C@H]2SC1.[Na+]` (stereo partly drawn) [Example 3, sodium 7-{D-α-[(3-methyl-2-oxo-imidazolidin-1-yl)-carbonylamino]-phenylacetamido}-3-acetoxymethyl-ceph-3-em-4-carboxylate]: the freedom from turbidity entry in test [5], in test [6], in test [7], in [8], in test [9] and in [10] was “free from turbidity” in each case. The freedom from turbidity result in test [11], in test [12], in test [13], in [14], in test [15] and in test [16] was “free from turbidity” throughout. For the same compound, the freedom from turbidity entry in [17], in [18], in test [19], in test [20], in test [21] and in test [22] was “free from turbidity” each time. Besides, the freedom from turbidity result in [23] and in [24] was “free from turbidity” each time.
By ED50 is commonly meant the dose at which the effect has come halfway, by size or by number of responders. A lower ED50 goes with an effect at a small dose. `CC(=O)OCC1=C(C(=O)[O-])N2C(=O)C(NC(=O)[C@H](NC(=O)N3CCN(S(C)(=O)=O)C3=O)c3ccccc3)[C@H]2SC1.[Na+]` (stereo partly drawn) [Example 6, Sodium 7-{D-α-[(2-oxo-3-mesyl-imidazolidin-1-yl)-carbonylamino]-phenylacetamido}-3-acetoxymethyl-ceph-3-em-4-carboxylate]: the freedom from turbidity result in [5], in test [6], in [7], in test [8], in [9] and in test [10] was “free from turbidity” each time. Further, the freedom from turbidity entry in test [11], in test [12], in [13], in [14], in test [15] and in test [16] was “free from turbidity” throughout. Further, the freedom from turbidity entry in test [17], in test [18], in test [19], in [20], in test [21] and in [22] was “free from turbidity” throughout. The freedom from turbidity result in test [23] and in test [24] was “free from turbidity” throughout. Besides, the “antibiotic activity” value in [4] is “only shows one spot with antibiotic activity”. Further, the ED50 came to 10 mg/kg in test [25], 150 mg/kg in test [26] and 200 mg/kg in test [27].
Consider `CC(=O)OCC1=C(C(=O)[O-])N2C(=O)C(NC(=O)[C@H](NC(=O)N3CCN(S(=O)(=O)c4ccccc4)C3=O)c3ccccc3)[C@H]2SC1.[Na+]` (stereo partly drawn) [Example 7, Sodium 7-{D-α-[(2-oxo-3-phenylsulphonyl-imidazolidin-1-yl)-carbonylamino]-phenylacetamido}-3-acetoxymethyl-ceph-3-em-4-carboxylate], for which the freedom from turbidity entry in test [5], in test [6], in test [7], in test [8], in test [9] and in [10] was “free from turbidity” in each case. Further, the freedom from turbidity result in [11], in test [12], in test [13], in test [14], in test [15] and in test [16] was “free from turbidity” each time. The freedom from turbidity entry in [17], in test [18], in test [19], in test [20], in test [21] and in test [22] was “free from turbidity” in each case. For the same compound, the freedom from turbidity result in test [23] and in test [24] was “free from turbidity” each time.
Take `CC(=O)OCC1=C(C(=O)O)N2C(=O)C(NC(=O)C(N)c3ccccc3)[C@H]2SC1` (stereo partly drawn) [cephaloglycine, 7-(α-amino-phenylacetamido)-3-acetoxymethyl-ceph-3-em-4-carboxylic acid]: the “activity against infections caused by Pseudomonades” value in test [28] was “not active”.
